Test results taken from patent publication US12473310B2, “Vitamin D3 phosphate and pharmaceutically acceptable salts thereof, pharmaceutical compositions comprising the compound and methods for preparing the compound” (King's College London, priority 2020, dated 2025).
Structures can show the parent of a compound that is named as a salt.

Tests used:
[1] = solubility of disodium salt in water by HPLC; format: physicochemical; conditions: thermodynamic from solid, distilled water
Description: Cholecalciferol phosphate disodium salt was added into 1.5 mL distilled water until it generated precipitation. The supersaturated solution was filtered into a glass bottle through a 0.45 μm syringe filter, diluted in water (1:100), then MeOH was added to make MeOH:water (90:10), and injected into the HPLC.

[2] = chemical stability on storage over 4 weeks; format: physicochemical
Description: The chemical stability of cholecalciferol phosphate acid/disodium salt was assessed in three different conditions over a 4-week period. Aliquots of 2 mg for each sample was stored at room temperature, 4° C., and −20° C. in a glass bottle covered with foil. A 20 mL sample of MeOH and MeOH:water (90:10) was added to cholecalciferol phosphate acid and cholecalciferol phosphate disodium salt, and the concentration and purity were assessed every week by the HPLC method described previously. The peak area was used to calculate sample concentration and the gradient of the data points being used to calculate the degradation rate.

[3] = patch pre-formulation, saturated concentration in adhesive; format: physicochemical; conditions: DURO-TAK 87-2051 adhesive; phosphate disodium salt
Description: To each solution, 175 μL of the transdermal adhesive DURO-TAK 87-2051 (51.5 w/v %) was added, and vortexed. Then 2.0 μL of α-tocopherol and 2.5 μL of diethylene glycol monoethyl ether were added and vortexed. The visual solubility was assessed.
To this solution 4 mg of α-tocopherol in 3 mL ethyl acetate was added and 167 μL of the transdermal adhesive DURO-TAK 87-2051 (51.5 w/v %) in 7 mL ethyl acetate with 6 μL diethylene glycol monoethyl ether was also added.
Each solution (3×3 cm) was cast onto the backing (3M™ Scotchpak™ Polyester Backing Film Laminate 9730, UK) to determine the clarity, and the saturation limit of the test agents in the adhesive mixtures.

[4] = physchem; format: physicochemical; conditions: 22 °C, organic solvent or mixture, thermodynamic from solid, HPLC
Description: An aliquot of 2.5 mg cholecalciferol and 2.5 mg cholecalciferol phosphate disodium salt prepared according to Example 1 were weighed into glass vials and 100 μL aliquots of the test solvents with different dielectric constants; water, MeOH:water (90:10), ethylene glycol, methanol (MeOH), propylene glycol (PG), ethanol (EtOH), poly(ethylene glycol) (PEG-400), and mineral oil were added until the sample was fully dissolved visually. A precise determination of the solubility was undertaken using high-performance liquid chromatography (HPLC). In the HPLC solubility studies an excess amount of cholecalciferol and cholecalciferol phosphate was added into 2 mL of each test solvent; water, MeOH:water (90:10), MeOH, and PG, EtOH and mineral oil. The solutions were left stirring overnight at room temperature, (RT), 22° C. The saturation of the solutions was confirmed by the visual appearance of crystals and the drug suspensions were filtered through 0.2 μm syringe filters, diluted, and the concentration of each sample was assessed using the HPLC method detailed below.
HPLC analysis was conducted using an HPLC system consisting of an auto-sample injector (Jasco AS-4050, Japan), a pump (Jasco PU-4180, Japan), and a photodiode array detector (Jasco MD-4017, Japan). The data was collected and analysed using the ChromNAV software. […]

[5] = physchem; format: physicochemical
Description: To validate the method of test agent recovery from the skin, solutions (1.0 mg/mL) of each vitamin D analogue were prepared in 100% PG. The precise concentrations in these samples were analysed by HPLC method described above. To assess the chemical stability of each test agent in the donor solutions used in the Franz cell experiments, 1.0 mg/mL of the samples prepared in 100% PG were incubated in a water bath at 37° C. for 24 h. In addition, to understand the chemical stability of each test agent in the extraction solvents used in the skin deposition studies, 1 mL of the drug sample in 100% PG was added into 10 mL of extraction fluid (MeOH for cholecalciferol, cholecalciferol phosphate acid, and MeOH:water, 90:10 for cholecalciferol phosphate disodium salt). Samples in PG (n=3) and samples in PG with the extraction fluid (n=3) were left in the water bath overnight at 37° C. and the sample concentration was analysed by the HPLC method described above. To assess whether the HPLC fluid had been impacted by any proteins that had leaked out of the skin, PG:water, 80:20 was added to donor and receiver chambers of porcine skin loaded Franz cells (n=3). A 5 mL sample of the receiver fluid was collected, and 25 μL of each test solution was added to this fluid and diluted to MeOH (1:1) and analysed by the HPLC method described previously. To verify the percentage of drug that could be recovered from the skin tissue, the skin sections were dermatomed (1 mm thickness) (n=3). The test solutions were spiked (50 μL) into a sample bottle containing the chopped dermatomed skin tissue. The samples containing the spiked drugs were left for 1 h for the drugs to absorb into the tissues. After the 1 h incubation period, 5 mL of extraction fluid (MeOH for cholecalciferol, cholecalciferol phosphate acid, and MeOH:water, 90:10 for cholecalciferol phosphate disodium salt) was added into each piece of the dermatomed skin tissue, then incubated in a shaking water bath for 1 h. The solutions were then tissue lysed by a tissue lyser for 40 min and homogenised by Ultra Turrax for 1 min and filtered using 0.45 μm syringe filters, centrifuged for 10 min at 13,000 rpm, and analysed by the HPLC method described above. In terms of cholecalciferol phosphate acid, after 1 h incubation and adding 5 mL extraction fluid, immediately the solutions with skin tissues were tissue lysed by a tissue lyser for 15 min. The solutions were then centrifuged for 10 min at 13,000 rpm and the supernatants were analysed by the HPLC method described above.

[6] = parameters: species or system porcine
Description: To verify the percentage of drug that could be recovered from each layer of the skin, each layer was isolated for a 2.19±0.21 cm^2 piece of skin, the drug was spiked into each layer, it was incubated and then recovered. For the SC tape stripping as described above was used to isolate the skin layer. A total of 20 pieces of tape were used to remove the SC and these strips were added into sample bottles. The epidermis was removed from the dermis, cut into small pieces, and placed into bottles. The test solutions were spiked (500 μL) into a sample bottle containing the SC and (200 μL) into the sample bottles containing the epidermis and dermis. The samples containing the spiked drugs were left for 1 h for the drugs to absorb into the tissues. After the 1 h incubation period, 10 mL of extraction fluid (PG:EtOH, 50:50 for cholecalciferol and MeOH:water, 90:10 for cholecalciferol phosphate) was added into SC, and 2 mL of extraction fluid was added into epidermis and dermis then incubated in a shaking water bath overnight at 32° C. The solutions with both epidermis and dermis were then homogenised by Ultra Turrax for 1 min and filtered using 0.2 μm syringe filters and analysed by HPLC method.

Row | SMILES | solubility [1] | change of purity over 4 weeks ([2]; all storage conditions) | degradation over 4 weeks ([2]; room temperature, 4° C. and −20° C.) | saturated concentration in patch formulation (highest loading without precipitation) [3] | solubility [4] | % Recovery, chemical stability with extraction fluid ([5]; 0.091 mg/mL) | % Recovery, chemical stability without extraction fluid ([5]; 24 h, 1 mg/mL) | % Recovery, drug extraction validation, Epidermis [6] | recovery at 0.091 mg/mL [5] | recovery at 24 h, 1 mg/mL [5]
1 | C=C1CC[C@H](OP(=O)(O)O)C/C1=C/C=C1\CCC[C@@]2(C)C1CC[C@@H]2[C@H](C)CCCC(C)C (stereo partly shown) [Cholecalciferol phosphate disodium salt, cholecalciferol phosphate disodium salt] | 78.7 mg/mL | less than 1% | did not degrade at any of the storage conditions | 13.57 w/w % | 3.7 mg/mL | 95.18 ± 4.82% | 81.87 ± 2.46% | – | – | –
2 | C=C1CC[C@H](O)C/C1=C/C=C1\CCC[C@]2(C)[C@@H]([C@H](C)CCCC(C)C)CC[C@@H]12 [Cholecalciferol, cholecalciferol, reference compound] | – | – | – | – | – | – | – | 104.86 ± 0.54% | 91.97 ± 0.63% | 77.5 ± 7.05%
